Data on 64 molecules can be found in US7511061B2, “Triazoles as farnesyl transferase inhibitors” (Janssen Pharmaceutica N.V., priority 1999, dated 2009).

SMILES strings stand for the structures.

The test concerns the target farnesyl protein transferase (FPTase) (Homo sapiens, UniProt P49354+P49356). Nature of the test: In vitro assay for inhibition of farnesyl protein transferase. Format: biochemical. The conditions noted are these: test dose of 10^−7 M. How it is done: An in vitro assay for inhibition of farnesyl transferase was performed essentially as described in WO 98/40383, pages 33-34.

In the case of `N#Cc1ccc(Cn2cnnc2CN(Cc2ccc(F)cc2F)C(=O)c2ccc(Br)s2)cc1` [compound 218], the inhibition at 0.1 µM was at least 10%.

Molecule `N#Cc1ccc(Cn2cnnc2CN(CCc2ccc(Br)cc2)C(=O)c2ccc(Br)o2)cc1` [compound 219] yielded an inhibition at 0.1 µM of at least 10%.

With `COc1cc(C(=O)N(CCc2ccc(Br)cc2)Cc2nncn2Cc2ccc(C#N)cc2)nc2ccccc12` [compound 220], the inhibition at 0.1 µM is at least 10%.

The molecule `Cc1ccc(C(=O)N(Cc2ccc(F)cc2F)Cc2nncn2Cc2ccc(C#N)cc2)cc1-c1cc(Cl)ccc1Cl` [compound 221] registered an inhibition at 0.1 µM of at least 10%.

`N#Cc1ccc(Cn2cnnc2CN(CCc2ccc(Br)cc2)C(=O)c2cccc(Br)c2)cc1` [compound 222] gave an inhibition at 0.1 µM of at least 10%.

With `N#Cc1ccc(Cn2cnnc2CN(CCc2ccc(Br)cc2)C(=O)c2cc3ccccc3s2)cc1` [compound 223], the inhibition at 0.1 µM was at least 10%.

In turn, `Cc1ccc(C(=O)N(Cc2ccc(F)cc2F)Cc2nncn2Cc2ccc(C#N)cc2)cc1-c1ccc(F)c(Cl)c1` [compound 224] had an inhibition at 0.1 µM of at least 10%.

Take `Cc1ccc(C)c(/C=C/C(=O)N(Cc2ccc(F)cc2F)Cc2nncn2Cc2ccc(C#N)cc2)c1` [compound 225]: the inhibition at 0.1 µM was at least 10%.

Molecule `N#Cc1ccc(Cn2cnnc2CN(Cc2cc(C(F)(F)F)cc(C(F)(F)F)c2)C(=O)c2ccc3ccccc3n2)cc1` [compound 226] came in with an inhibition at 0.1 µM of at least 10%.

Take `N#Cc1ccc(Cn2cnnc2CN(Cc2ccc(F)cc2F)C(=O)c2cccc(-c3cccc(C(F)(F)F)c3)c2)cc1` [compound 227]: the inhibition at 0.1 µM is at least 10%.

Molecule `N#Cc1ccc(Cn2cnnc2CN(Cc2ccc(F)cc2F)C(=O)c2ccc(Br)o2)cc1` [compound 229] gave an inhibition at 0.1 µM of at least 10%.

Turning to `Cc1cccc(Cc2nnc(CN(c3ccc(Oc4ccccc4)cc3)S(=O)(=O)c3ccc(-c4ccc(F)c(Cl)c4)cc3C)n2Cc2cccc(C)n2)n1` [compound 230], the inhibition at 0.1 µM was at least 10%.

`N#Cc1ccc(Cn2cnnc2CN(Cc2ccc(F)cc2F)C(=O)/C=C/c2cccc(C(F)(F)F)c2)cc1` [compound 231] registered an inhibition at 0.1 µM of at least 10%.

As to `N#Cc1ccc(Cn2cnnc2CN(Cc2ccccc2)C(=O)c2ccc3ccccc3n2)cc1` [compound 232], the inhibition at 0.1 µM was at least 10%.

With `Cc1ccc(C(=O)N(CCc2ccc(Br)cc2)Cc2nncn2Cc2ccc(C#N)cc2)cc1C` [compound 233], the inhibition at 0.1 µM was at least 10%.

`N#Cc1ccc(Cn2cnnc2CN(Cc2c(F)cccc2F)c2ccc(Oc3ccccc3)cc2)cc1` [compound 234] displayed an inhibition at 0.1 µM of at least 10%.

Turning to `COc1ccc(CCN(Cc2nncn2Cc2ccc(C#N)cc2)C(=O)c2ccc3ccccc3n2)cc1` [compound 236], the inhibition at 0.1 µM is at least 10%.

The molecule `COc1ccc2oc(C(=O)N(CCc3ccc(Br)cc3)Cc3nncn3Cc3ccc(C#N)cc3)cc2c1` [compound 237] showed an inhibition at 0.1 µM of at least 10%.

Take `N#Cc1ccc(Cn2cnnc2CN(Cc2c(F)ccc(F)c2F)c2ccc(Oc3ccccc3)cc2)cc1` [compound 238]: the inhibition at 0.1 µM was at least 10%.

For `N#Cc1ccc(Cn2cnnc2CN(Cc2ccc(F)cc2F)C(=O)c2cccc(-c3ccsc3)c2)cc1` [compound 239], the inhibition at 0.1 µM is at least 10%.

In turn, `N#Cc1ccc(Cn2cnnc2CN(Cc2ccc(F)cc2F)C(=O)/C=C/c2cccc(Br)c2)cc1` [compound 241] returned an inhibition at 0.1 µM of at least 10%.

As for `Cc1ccccc1-c1cccc(C(=O)N(Cc2ccc(F)cc2F)Cc2nncn2Cc2ccc(C#N)cc2)c1` [compound 242], the inhibition at 0.1 µM was at least 10%.

Regarding `N#Cc1ccc(Cn2cnnc2CN(Cc2ccc(F)cc2F)C(=O)c2cccc(Br)c2)cc1` [compound 243], the inhibition at 0.1 µM was at least 10%.

`N#Cc1ccc(Cn2cnnc2CN(CCc2ccc(Br)cc2)C(=O)c2ccc3c(c2)OCO3)cc1` [compound 244] gave an inhibition at 0.1 µM of at least 10%.

In turn, `N#Cc1ccc(Cn2cnnc2CN(Cc2ccc(F)cc2F)C(=O)/C=C/c2cc(F)cc(C(F)(F)F)c2)cc1` [compound 245] displayed an inhibition at 0.1 µM of at least 10%.

In the case of `N#Cc1ccc(Cn2cnnc2CN(Cc2ccc(F)cc2F)C(=O)c2cccc(Cl)c2)cc1` [compound 246], the inhibition at 0.1 µM was at least 10%.

On to `N#Cc1ccc(Cn2cnnc2CN(Cc2ccco2)C(=O)c2ccc3ccccc3n2)cc1` [compound 247], for which the inhibition at 0.1 µM was at least 10%.

In turn, `N#Cc1ccc(Cn2cnnc2CN(C(=O)c2ccc3ccccc3n2)c2ccc(N3CCOCC3)cc2)cc1` [compound 248] showed an inhibition at 0.1 µM of at least 10%.

In turn, `N#Cc1ccc(Cn2cnnc2CN(Cc2ccc(F)cc2F)C(=O)/C=C/c2ccccc2Cl)cc1` [compound 249] came in with an inhibition at 0.1 µM of at least 10%.

Take `N#Cc1ccc(Cn2cnnc2CN(Cc2ccc(F)cc2F)C(=O)/C=C/c2ccc(Cl)c(Cl)c2)cc1` [compound 250]: the inhibition at 0.1 µM was at least 10%.

`N#Cc1ccc(Cn2cnnc2CN(CCc2ccc(Br)cc2)C(=O)c2cc3ccccc3o2)cc1` [compound 251] came in with an inhibition at 0.1 µM of at least 10%.

In turn, `N#Cc1ccc(Cn2cnnc2CN(Cc2ccc(F)cc2F)C(=O)c2cc3ccccc3oc2=O)cc1` [compound 252] came in with an inhibition at 0.1 µM of at least 10%.

Molecule `Cc1cccc(C(=O)N(Cc2ccc(F)cc2F)Cc2nncn2Cc2ccc(C#N)cc2)c1` [compound 253] returned an inhibition at 0.1 µM of at least 10%.

`Cc1cccc(/C=C/C(=O)N(Cc2ccc(F)cc2F)Cc2nncn2Cc2ccc(C#N)cc2)c1` [compound 254] had an inhibition at 0.1 µM of at least 10%.

Regarding `COC(=O)c1cc(C)nc(N(Cc2nnc[nH]2)Cc2ccc(F)cc2F)[n+]1Cc1ccc(C#N)cc1` [compound 255], the inhibition at 0.1 µM is at least 10%.

`N#Cc1ccc(Cn2cnnc2CN(C(=O)c2ccc3ccccc3n2)c2ccc(Oc3ccccc3)cc2)cc1` [compound 256] yielded an inhibition at 0.1 µM of at least 10%.

`N#Cc1ccc(Cn2cnnc2CN(c2ccc(Oc3ccccc3)cc2)c2nccc(C(F)(F)F)n2)cc1` [compound 257] had an inhibition at 0.1 µM of at least 10%.

The molecule `CC1=C(C(=O)N(Cc2ccc(F)cc2F)Cc2nncn2Cc2ccc(C#N)cc2)Cc2ccccc21` [compound 258] returned an inhibition at 0.1 µM of at least 10%.

`N#Cc1ccc(Cn2cnnc2CN(Cc2ccc(F)cc2F)C(=O)c2cccc(-c3ccccc3C(F)(F)F)c2)cc1` [compound 259]: the inhibition at 0.1 µM is at least 10%.

As to `Cc1ccccc1-c1cc(C(=O)N(Cc2ccc(F)cc2F)Cc2nncn2Cc2ccc(C#N)cc2)ccc1C` [compound 260], the inhibition at 0.1 µM was at least 10%.

Consider `N#Cc1ccc(Cn2cnnc2CN(CCC(c2ccccc2)c2ccccc2)C(=O)C2CCN(S(=O)(=O)c3ccc(F)cc3)CC2)cc1` [compound 261], for which the inhibition at 0.1 µM was at least 10%.

As to `Cc1ccc(C(=O)N(Cc2ccc(F)cc2F)Cc2nncn2Cc2ccc(C#N)cc2)cc1C` [compound 262], the inhibition at 0.1 µM was at least 10%.

`N#Cc1ccc(Cn2cnnc2CN(CCc2ccc(Cl)cc2)C(=O)c2ccc3ccccc3n2)cc1` [compound 264] registered an inhibition at 0.1 µM of at least 10%.

`N#Cc1ccc(Cn2cnnc2CN(CCc2ccc(Br)cc2)C(=O)c2ccc3ccccc3c2)cc1` [compound 265] gave an inhibition at 0.1 µM of at least 10%.

In turn, `N#Cc1ccc(Cn2cnnc2CN(Cc2ccc(F)cc2F)C(=O)/C(=C/c2ccccc2)c2ccccc2)cc1` [compound 266] returned an inhibition at 0.1 µM of at least 10%.

`COc1ccccc1/C=C/C(=O)N(Cc1ccc(F)cc1F)Cc1nncn1Cc1ccc(C#N)cc1` [compound 267] returned an inhibition at 0.1 µM of at least 10%.

The molecule `COc1ccc2oc(C(=O)N(Cc3ccc(F)cc3F)Cc3nncn3Cc3ccc(C#N)cc3)cc2c1` [compound 268] showed an inhibition at 0.1 µM of at least 10%.

For the molecule `N#Cc1ccc(Cn2cnnc2CN(CCc2ccc(Br)cc2)C(=O)c2ccc3ccccc3n2)cc1` [compound 269], the inhibition at 0.1 µM is at least 10%.

Regarding `N#Cc1ccc(Cn2cnnc2CN(Cc2ccc(F)cc2F)C(=O)c2cc3ccccc3s2)cc1` [compound 270], the inhibition at 0.1 µM was at least 10%.

Consider `N#Cc1ccc(Cn2cnnc2CN(CCSCc2c(F)cccc2Cl)C(=O)c2ccc3ccccc3n2)cc1` [compound 271], for which the inhibition at 0.1 µM is at least 10%.

Molecule `N#Cc1ccc(Cn2cnnc2CN(Cc2ccc(F)cc2F)C(=O)c2ccc(-c3ccc(F)c(Cl)c3)o2)cc1` [compound 272] had an inhibition at 0.1 µM of at least 10%.

The molecule `O=C(c1ccc2ccccc2n1)N(Cc1ccc(F)cc1F)Cc1nncn1Cc1ccc([N+](=O)[O-])cc1` [compound 273] returned an inhibition at 0.1 µM of at least 10%.

As to `N#Cc1ccc(Cn2cnnc2CN(Cc2ccc(F)cc2F)C(=O)c2ccc(-c3ccc(F)cc3)o2)cc1` [compound 274], the inhibition at 0.1 µM is at least 10%.

In the case of `N#Cc1ccc(Cn2cnnc2CN(Cc2cccc(Cl)c2)C(=O)c2ccc3ccccc3n2)cc1` [compound 275], the inhibition at 0.1 µM is at least 10%.

On to `N#Cc1ccc(Cn2cnnc2CN(CCc2ccc(F)cc2)C(=O)c2ccc3ccccc3n2)cc1` [compound 276], for which the inhibition at 0.1 µM was at least 10%.

In turn, `Cc1cc(C(=O)N(Cc2ccc(F)cc2F)Cc2nncn2Cc2ccc(C#N)cc2)ccc1Br` [compound 277] came in with an inhibition at 0.1 µM of at least 10%.

Turning to `N#Cc1ccc(Cn2cnnc2CN(Cc2ccc(F)cc2F)C(=O)c2cccc(-c3ccsc3)n2)cc1` [compound 278], the inhibition at 0.1 µM is at least 10%.

On to `N#Cc1ccc(Cn2cnnc2CN(Cc2ccc(F)cc2F)C(=O)c2cccc(Cl)n2)cc1` [compound 279], for which the inhibition at 0.1 µM was at least 10%.

Regarding `N#Cc1ccc(Cn2cnnc2CN(Cc2ccccc2OC(F)(F)F)C(=O)c2ccc3ccccc3n2)cc1` [compound 280], the inhibition at 0.1 µM is at least 10%.

As for `N#Cc1ccc(Cn2cnnc2CN(Cc2ccc(F)cc2F)C(=O)c2ccc(-c3ccccc3C(F)(F)F)o2)cc1` [compound 281], the inhibition at 0.1 µM was at least 10%.

`C/C(=C\c1ccccc1)C(=O)N(Cc1ccc(F)cc1F)Cc1nncn1Cc1ccc(C#N)cc1` [compound 282] displayed an inhibition at 0.1 µM of at least 10%.

`N#Cc1ccc(Cn2cnnc2CN(Cc2ccc(F)cc2F)C(=O)c2cccc(-c3cc(Cl)cc(Cl)c3)c2)cc1` [compound 283] registered an inhibition at 0.1 µM of at least 10%.

The molecule `N#Cc1ccc(Cn2cnnc2CN(Cc2ccc(Cl)cc2Cl)C(=O)c2ccc3ccccc3n2)cc1` [compound 284] had an inhibition at 0.1 µM of at least 10%.

`N#Cc1ccc(Cn2cnnc2CN(Cc2ccc(F)cc2F)C(=O)c2cccc(Br)n2)cc1` [compound 285] came in with an inhibition at 0.1 µM of at least 10%.
